Values of other authors as cited in publication PMC7395068, “The evolution of strategies to minimise the risk of human drug-induced liver injury (DILI) in drug discovery and development” (Archives of Toxicology, 2020).
Like-named read-outs stand apart in the source and are kept apart here.

Tests used:
[1] = cited from earlier work
HepG2 cells [2] = settings: cited from earlier work
[3] = cited from earlier work; remark: listed apart in the source
[4] = test system: THLE or HepG2 cells, isolated mitochondria, BSEP; settings: cited from earlier work
[5] = test system: isolated mouse liver mitochondria; settings: cited from earlier work
HepG2 cells [6] = settings: cited from earlier work; remark: listed apart in the source
human hepatocytes = settings: cited from earlier work
[7] = In vitro Assay, ref O'Brien 2006
[8] = assignment in O'Brien 2006, ref O'Brien 2006
[9] = In vitro Assay, ref Porceddu 2012
[10] = In vitro Assay, ref Persson 2013

SMILES: NNc1nncc2ccccc12 [hydralazine]
- DILI +VE (5-8), DILI -VE (-4) ([1]; ref Chen 2016): +VE
- DILI severity category ([1]; ref Chen 2016): vLess-DILI-Concern
- Structural based (HCI) (HepG2 cells [2]; [7]): +VE (lowest HCI endpoint IC50 (or in the absence of dose–response < 100 µM) < 30 × total human plasma exposure levels (Cmax.tot))
- In vivo DILI ([3]; […]): +VE
- In vivo DILI ([3]; ref O'Brien 2006): +VE

SMILES: CC(C(=O)O)c1ccc(N2Cc3ccccc3C2=O)cc1 (stereo not shown) [indoprofen]
- Structural based (HCI), In vitro Assay (HepG2 cells [2]; HepG2 HCI, ref O'Brien 2006): +VE
- In vivo DILI [3, 8]: -VE

SMILES: Nc1ccn([C@@H]2CS[C@H](CO)O2)c(=O)n1 [lamivudine]
- DILI +VE (5-8), DILI -VE (-4) ([1]; in vivo): +VE
- DILI severity category ([1]; in vivo): vLess-DILI-Concern
- Partition Hybrid HRM Score [4]: -VE
- in vitro data EC2<=1x Cmax [5, 9]: +VE

SMILES: CCN(CC)CCNC(=O)c1cc(Cl)c(N)cc1OC [metoclopramide]
- DILI +VE (5-8), DILI -VE (-4) ([1]; in vivo): +VE
- DILI severity category ([1]; in vivo): vLess-DILI-Concern
- Structural based (HCI) (HepG2 cells [2]): -VE

SMILES: CC[C@H](C)C(=O)O[C@H]1CCC=C2C=C[C@H](C)[C@H](CC[C@@H]3C[C@@H](O)CC(=O)O3)[C@H]21 [mevastatin]
- Structural based (HCI), In vitro Assay (HepG2 cells [2]; HepG2 HCI, ref O'Brien 2006): -VE
- In vivo DILI [3, 8]: -VE

SMILES: CN1CCC[C@H]1c1cccnc1 [nicotine]
- Cluser analysis (HepG2 cells [6]): -VE
- In vivo DILI ([3]; in vivo): -VE
- in vitro data EC20<=2uM [5]: -VE

SMILES: CCCN1C[C@H](CSC)C[C@@H]2c3cccc4[nH]cc(c34)C[C@H]21 [pergolide]
- DILI +VE (5-8), DILI -VE (-4) ([1]; ref Chen 2016): -VE
- DILI severity category ([1]; ref Chen 2016): Ambiguous DILI-concern
- Cluser analysis (HepG2 cells [6]; [10]): -VE
- Structural based (HCI) (HepG2 cells [6]; [10]): -VE
- In vivo DILI ([3]; ref Persson 2013): -VE

SMILES: CCC1(c2ccccc2)C(=O)NCNC1=O [primidone]
- DILI +VE (5-8), DILI -VE (-4) ([1]; in vivo): -VE
- Structural based (HCI) (HepG2 cells [2]): +VE

SMILES: CCCc1cc(=O)[nH]c(=S)[nH]1 [propylthiouracil]
- DILI +VE (5-8), DILI -VE (-4) ([1]; in vivo): +VE
- DILI severity category ([1]; in vivo): vMost-DILI-Concern
- Cluser analysis (HepG2 cells [6]): -VE
- Structural based (HCI) (HepG2 cells [6]): -VE
- in vitro data EC2<=1x Cmax [5, 9]: +VE

SMILES: CCCc1cc(=O)[nH]c(=S)[nH]1 [propythiouracil]
- Structural based (HCI), In vitro Assay (HepG2 cells [2]; HepG2 HCI, ref O'Brien 2006): +VE

SMILES: CC(C)c1nc(CN(C)C(=O)N[C@H](C(=O)N[C@@H](Cc2ccccc2)C[C@H](O)[C@H](Cc2ccccc2)NC(=O)OCc2cncs2)C(C)C)cs1 [ritonavir]
- DILI +VE (5-8), DILI -VE (-4) ([1]; ref Chen 2016): +VE
- DILI severity category ([1]; ref Chen 2016): vMost-DILI-Concern
- Partition Hybrid HRM Score ([4]; In vitro Assay, ref Aleo 2019): +VE
- Ro2 Hybrid HRM Score ([4]; In vitro Assay, ref Aleo 2019): +VE
- In vivo DILI ([3]; ref Aleo 2019): +VE
- In vivo DILI ([3]; ref Porceddu 2012): +VE
- In vivo DILI ([3]; ref Schadt 2015): +VE
- in vitro data EC2<=1x Cmax [5, 9]: +VE
- in vitro data EC20<=2uM [5, 9]: +VE

SMILES: [Cl-].[Na+] [sodium chloride]
- Structural based (HCI), In vitro Assay (HepG2 cells [2]): +VE
- In vivo DILI ([3]; in vivo): -VE

SMILES: CNC(=O)c1cc(Oc2ccc(NC(=O)Nc3ccc(Cl)c(C(F)(F)F)c3)cc2)ccn1 [sorafenib]
- DILI +VE (5-8), DILI -VE (-4) ([1]; ref Chen 2016): +VE
- DILI severity category ([1]; ref Chen 2016): vMost-DILI-Concern
- Partition Hybrid HRM Score ([4]; In vitro Assay, ref Aleo 2019): +VE
- Ro2 Hybrid HRM Score ([4]; In vitro Assay, ref Aleo 2019): +VE
- In vivo DILI ([3]; ref Aleo 2019): +VE
- In vivo DILI ([3]; ref Porceddu 2012): +VE
- in vitro data EC2<=1x Cmax [5, 9]: +VE
- in vitro data EC20<=2uM [5, 9]: -VE

SMILES: Nc1ccc(S(=O)(=O)NC(=O)c2ccccc2)cc1 [sulfabenzamide]
- Structural based (HCI), In vitro Assay (HepG2 cells [2]; HepG2 HCI, ref O'Brien 2006): -VE
- In vivo DILI [3, 8]: -VE

SMILES: Nc1ccc(S(=O)(=O)Nc2ccnn2-c2ccccc2)cc1 [sulfaphenazole]
- Structural based (HCI) (HepG2 cells [2]; [7]): +VE (lowest HCI endpoint IC50 (or in the absence of dose–response < 100 µM) < 30 × total human plasma exposure levels (Cmax.tot))
- In vivo DILI ([3]; […]): -VE
- In vivo DILI ([3]; ref O'Brien 2006): +VE

SMILES: CNS(=O)(=O)Cc1ccc2[nH]cc(CCN(C)C)c2c1 [sumatriptan]
- DILI +VE (5-8), DILI -VE (-4) ([1]; ref Chen 2016): -VE
- DILI severity category ([1]; ref Chen 2016): Ambiguous DILI-concern
- Structural based (HCI) (human hepatocytes; In vitro Assay, ref Xu 2008): -VE
- In vivo DILI ([3]; ref Porceddu 2012): -VE
- In vivo DILI ([3]; ref Xu 2008): -VE
- in vitro data EC2<=1x Cmax [5, 9]: -VE
- in vitro data EC20<=2uM [5, 9]: -VE

SMILES: Cc1scc2c1N(C(=O)CN1CCN(C)CC1)c1ccccc1NC2=O [telenzipine]
- Structural based (HCI), In vitro Assay (HepG2 cells [2]; HepG2 HCI, ref O'Brien 2006): -VE
- In vivo DILI [3, 8]: -VE

SMILES: CN[C@H](CC(C)C)C(=O)N[C@H]1C(=O)N[C@@H](CC(N)=O)C(=O)N[C@H]2C(=O)N[C@H]3C(=O)N[C@H](C(=O)N[C@H](C(=O)O)c4cc(O)cc(O)c4-c4cc3ccc4O)[C@H](O)c3ccc(c(Cl)c3)Oc3cc2cc(c3O[C@@H]2O[C@H](CO)[C@@H](O)[C@H](O)[C@H]2O[C@H]2C[C@](C)(N)[C@H](O)[C@H](C)O2)Oc2ccc(cc2Cl)[C@H]1O [vancomycin]
- DILI +VE (5-8), DILI -VE (-4) ([1]; in vivo): +VE
- DILI severity category ([1]; in vivo): vLess-DILI-Concern
- Cluser analysis (HepG2 cells [6]): -VE
- Structural based (HCI) (human hepatocytes): +VE
- Partition Hybrid HRM Score [4]: +VE
- Ro2 Hybrid HRM Score [4]: -VE

SMILES: CC[C@]12CCCN3CCc4c(n(c5ccccc45)[C@@](O)(C(=O)OC)C1)[C@@H]32 [vincamine]
- Structural based (HCI), In vitro Assay (HepG2 cells [2]; HepG2 HCI, ref O'Brien 2006): +VE
- In vivo DILI [3, 8]: -VE
